Measurements published in patent US20140037574A1, “PHARMACEUTICAL COMPOSITION” (priority 2010, published 2014).

Target: CYP3A4 (Homo sapiens, UniProt P08684)
Test: in vitro
Conditions: for inhibition at 10 min: human, microsomes, pH 7.4; for IC50: HLM, felodipine at its Km as substrate
Description: G6PDH (40 U/mL) was prepared in 5 mM sodium citrate solution and stored at −20° C. until use. […] The preparation of NRS was completed right before use. It was made such that on addition to the HLM incubation mixture, it contained 2.6 mM NADP', 6.7 mM G6P, […] and 0.8 U/ml G6PDH.
Substrate (felodipine) solutions were prepared over a range of 0.01-100.0 mM in acetonitrile. […] This was kept on ice until use.
The reaction was halted by a stop solution made of cooled acetonitrile (−20° C.).
Supernatants were filtered through […] and analysed by the UPLC method developed in order to quantify the extent of felodipine metabolism. The rate of metabolism, determined as the rate of disappearance of substrate, was profiled against the substrate concentration to determine the enzyme kinetic parameters.
Felodipine at its determined Km was incubated in HLM as described above except for the addition of inhibitors. […] Supernatants were analysed using the developed UPLC method. […] Another control was incubated without inhibitors to allow for maximum metabolism. […] At higher concentrations, the effect of acetonitrile on enzymatic activity could be significant. It is therefore recommended that not >1% acetonitrile should be included in the incubation mixture. […] The final concentration of acetonitrile in the incubation mixture was 1%.
Their inhibitory effects were investigated on microsomal metabolism of felodipine. The potencies of the inhibitors were measured as their IC50 values determined through non-linear regression of the percentage inhibition of felodipine metabolism against inhibitor concentration. […] The concentration of felodipine in incubation mixtures containing the various inhibitors and the modelled pre-systemic enzymatic modulators was determined and the extent of metabolism was measured as percentage of control.

Chain of CYP3A4 (P08684 whole entry): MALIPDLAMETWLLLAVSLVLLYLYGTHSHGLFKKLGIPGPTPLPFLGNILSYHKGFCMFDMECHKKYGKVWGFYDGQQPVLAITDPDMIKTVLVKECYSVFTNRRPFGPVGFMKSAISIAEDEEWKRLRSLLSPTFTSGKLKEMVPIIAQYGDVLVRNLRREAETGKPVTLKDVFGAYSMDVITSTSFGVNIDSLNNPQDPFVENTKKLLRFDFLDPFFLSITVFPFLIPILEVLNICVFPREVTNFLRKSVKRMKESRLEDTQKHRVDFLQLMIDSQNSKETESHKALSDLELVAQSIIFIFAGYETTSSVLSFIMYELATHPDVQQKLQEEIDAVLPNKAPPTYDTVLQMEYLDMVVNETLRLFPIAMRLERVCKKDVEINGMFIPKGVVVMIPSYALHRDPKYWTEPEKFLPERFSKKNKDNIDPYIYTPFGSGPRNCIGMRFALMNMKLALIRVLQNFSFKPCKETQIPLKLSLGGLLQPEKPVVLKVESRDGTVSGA

inhibition at 10 min [%] | IC50 (IC50 (mg/mL)) [µM] | IC50 (IC50 (μM), Table 1) [µM] | SMILES
98 | – | – | O=c1c(O)c(-c2ccc(O)c(O)c2)oc2cc(O)cc(O)c12 [Quercetin, quercetin]
98 | 178 | 178 | C[C@@H]1O[C@@H](O[C@H]2[C@H](Oc3cc(O)c4c(c3)O[C@H](c3ccc(O)cc3)CC4=O)O[C@H](CO)[C@@H](O)[C@@H]2O)[C@H](O)[C@H](O)[C@H]1O [Naringin, naringin]
95 | – | – | O=C1C[C@@H](c2ccc(O)cc2)Oc2cc(O)cc(O)c21 [Naringenin, naringenin]
